Data published in PMC12693416, “From Lipid Regulation to Neuroprotection: Multitarget (Benzo)thiazine Derivatives as Promising Leads” (Molecules, 2025).
pIC50: −log10 of the molar value. Like-named read-outs stand apart in the source and are kept apart here.

What was measured:
[1] = Iron chelation (ferrozine assay); conditions: for % of Fe(II) Chelation (at 100 μM): 100 μM compound, Fe2+ 20 μM
Method: […] The reaction was initiated with the addition of a 100 μM aqueous ferrozine solution, which chelates iron ions, resulting in an increased maximum absorbance at 562 nm. After incubation at 37 °C for 10 min, the mixture’s absorbance is measured at 562/700 nm. Each value is expressed as the mean of 3 tests per sample [46].

[2] = Radical scavenging of DPPH; conditions: DPPH 200 μM, 30 min incubation
Method: Compounds, dissolved in absolute methanol, at concentrations of 25–400 μM, were added to an equal volume of a methanolic solution of DPPH (final concentration 200 μM) at room temperature (22 ± 2 °C).

[3] = test system: mouse liver microsomal lipid peroxidation; experiment: Inhibition of mouse liver microsomal lipid peroxidation (LP); conditions: for LP % Inhibition at 100 μΜ: 100 μM compound; for pIC50: read-out: LP IC50 Value, 45 min incubation
hyperlipidaemic mice = experiment: Tyloxapol (Triton WR 1339)-induced hyperlipidemia, plasma lipid parameters; type: in vivo; conditions: i.p. 84 μmol/kg; for change in vivo at 84 µmol/kg / inhibition in vivo at 84 µmol/kg: Mus musculus, ip, 24 h
Method: An aqueous solution of Triton WR 1339 was given i.p. to mice (400 mg/kg of body weight) and one hour later the test compounds (84 μmol/kg of body weight), dissolved in saline or saline only, were administered i.p. After 24 h, blood was taken from the aorta/heart and used for the determination of plasma total cholesterol (TC), triglyceride (TG) levels, and high-density lipoprotein (HDL) levels, using commercially available kits (Biosis Cholesterol Enzymatic/PAP, Biosis Triglycerides GPO/PAP, and Biosis HDL Phosphovolframic, Biosis, Athens Greece). Levels of plasma lipids were determined in duplicate while values presented are the mean from 8 animals (per compound). The levels of low-density lipoprotein (LDL) are calculated according to the equation: LDL (mg/dL) = 3/4 * (TC-HDL).

[4] = molecular target: T1, acetylcholinesterase from eel (Electrophorus electricus, UniProt O42275); experiment: Acetylcholinesterase (AChE) inhibition (Ellman); type: biochemical; conditions: read-out: AChE Inhibition (%), 300 μM compound
T1 construct: purchased Sigma
T1 sequence (O42275 24-633): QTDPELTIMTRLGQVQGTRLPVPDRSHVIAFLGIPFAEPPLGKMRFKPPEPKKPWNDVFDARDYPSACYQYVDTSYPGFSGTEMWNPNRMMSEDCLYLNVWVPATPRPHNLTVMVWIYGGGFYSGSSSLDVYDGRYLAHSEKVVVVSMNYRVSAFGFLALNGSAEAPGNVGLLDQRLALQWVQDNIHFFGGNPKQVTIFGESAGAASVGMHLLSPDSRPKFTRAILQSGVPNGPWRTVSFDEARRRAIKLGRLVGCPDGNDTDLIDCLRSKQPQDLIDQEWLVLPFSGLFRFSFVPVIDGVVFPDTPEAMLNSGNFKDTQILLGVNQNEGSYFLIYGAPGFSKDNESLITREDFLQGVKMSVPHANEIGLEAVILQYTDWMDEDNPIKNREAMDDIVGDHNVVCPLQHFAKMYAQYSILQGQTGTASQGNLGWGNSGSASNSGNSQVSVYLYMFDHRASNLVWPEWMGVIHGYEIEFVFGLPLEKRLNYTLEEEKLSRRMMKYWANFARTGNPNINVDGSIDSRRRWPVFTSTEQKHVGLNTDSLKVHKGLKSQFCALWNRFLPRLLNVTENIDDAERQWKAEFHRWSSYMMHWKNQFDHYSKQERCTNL
Method: (0.31 mM) in phosphate buffer with pH = 7. The incubation mixture is monitored for 7 min at 37 °C.

[5] = test system: carrageenan-induced mouse paw edema; experiment: Carrageenan-induced mouse paw edema; type: in vivo, C57BL/6 mice; conditions: ip, 3.5 h, i.p. 0.30 mmol/kg, female C57BL/6, 3.5 h after carrageenan, read-out: % Edema (decrease of carrageenan-induced paw edema vs control)
Method: For the in vivo anti-inflammatory activity, C57BL/6 mice were injected with 0.025 mL carrageenan (2% w/v solution in saline) i.d. into the right hind paw, the left paw serving as control. The test compounds dissolved in saline (300 μmol/kg) were given i.p. right after the carrageenan injection, and 3.5 h later the produced edema was estimated as paw weight increase. Results are expressed as percentage of reduction in paw-edema and are the mean of 6 animals (per compound).

[6] = molecular target: soybean lipoxygenase (LOX-3); experiment: Soybean lipoxygenase (LOX-3) inhibition; type: biochemical; conditions: after 5 min of incubation; sodium linoleate 100 μM, pH 9.0
Method: Lipoxygenase (LOX) inhibitory activity was determined using soybean lipoxygenase (250 U/mL) and sodium linoleate (100 μM) as substrate, in Tris–HCl buffer pH 9.0.

[7] = test system: plasma of hyperlipidaemic mice; experiment: Total antioxidant capacity (TAC) of plasma in hyperlipidaemic mice; type: in vivo; conditions: Mus musculus, ip, 24 h, i.p. 84 μmol/kg, read-out: Total Antioxidant Capacity (TAC) Increase (%)
[8] = plasma, vs tyloxapol control, read-out: % HDL Increase
[9] = LDL calculated as 3/4*(TC-HDL), read-out: % LDL Decrease
[10] = plasma, vs tyloxapol control, read-out: % Total Cholesterol (TC) Reduction
[11] = plasma, vs tyloxapol control, read-out: % Triglycerides (TG) Reduction
[12] = ratio calculated, read-out: % HDL/LDL Increase (antiatherogenic index)

Row | SMILES | % of Fe(II) Chelation (at 100 μM) [1] | pIC50 [2] | LP % Inhibition at 100 μΜ [3] | change in vivo at 84 µmol/kg (hyperlipidaemic mice; [8]) | inhibition in vivo at 84 µmol/kg (hyperlipidaemic mice; [9]) | inhibition in vivo at 84 µmol/kg (hyperlipidaemic mice; [10]) | inhibition in vivo at 84 µmol/kg (hyperlipidaemic mice; [11]) | inhibition at 300 µM [4] | pIC50 [3] | inhibition in vivo at 300 µmol/kg [5] | IC50 [6] | change in vivo at 84 µmol/kg (hyperlipidaemic mice; [12]) | change in vivo at 84 µmol/kg [7] | % of Fe(II) Chelation at 10 μM ([1]; 10 μM compound) | % HDL, value marked footnote 2: decrease percentage (hyperlipidaemic mice; plasma, HDL decrease, not increase)
1 | Cc1cc(C(C)(C)C)c(O)c(C(C)(C)C)c1 [BHT, butylated hydroxytoluene, reference compound] | 0% | 4.51 | 0% |  |  |  |  |  |  |  |  |  |  |  | 
2 | COc1cc(/C=C/C(=O)N2CCSC(c3ccc(-c4ccccc4)cc3)C2)ccc1O (stereo not drawn) [Compound 1, (E)-1-(2-([1,1′-Biphenyl]-4-yl)thiomorpholino)-3-(4-hydroxy-3-methoxyphenyl)prop-2-en-1-one] | 19% | 3.78 |  | 84% | 59% | 40% | 83% | 22% | 5.22 | ≤ 60% | 68 µM |  |  |  | 
3 | COc1ccc(/C=C/C(=O)N2CCSC(c3ccc(-c4ccccc4)cc3)C2)cc1OC (stereo not drawn) [Compound 2, (E)-1-(2-([1,1′-Biphenyl]-4-yl)thiomorpholino)-3-(3,4-dimethoxyphenyl)prop-2-en-1-one] | 18% | < 3.40 |  | 44% | 53% | 30% | 60% | 26% | < 3.00 | ≤ 60% | > 300 µM | 122% | 43% |  | 
4 | O=C(c1cc(O)c(O)c(O)c1)N1CCSC(c2ccc(-c3ccccc3)cc2)C1 (stereo not drawn) [Compound 3, (2-([1,1′-Biphenyl]-4-yl)thiomorpholino)(3,4,5-trihydroxyphenyl)methanone] | 89% | 4.51 |  | 49% | 79% | 51% | 86% | 10% | 5.10 | ≤ 60% | 4 µM |  |  | 56% | 
5 | COc1cc(C(=O)N2CCSC(c3ccc(-c4ccccc4)cc3)C2)cc(OC)c1OC (stereo not drawn) [Compound 4] | 4% | < 3.40 |  | 95% | 5% | 10% | 35% | 30% | < 3.30 | 44% | 71 µM |  | 87% |  | 
6 | CC(C)(C)c1cc(C(=O)N2CCSC(c3ccc(-c4ccccc4)cc3)C2)cc(C(C)(C)C)c1O (stereo not drawn) [Compound 5, (2-([1,1′-Biphenyl]-4-yl)thiomorpholino)(3,5-ditertbutyl-4-hydroxyphenyl)methanone] | 0% | 3.52 |  |  |  | 55% | 50% | 24% | 3.60 | 35% | 150 µM |  | 0% |  | 
7 | CC(C)(C)c1cc(/C=C/C(=O)N2CCSC(c3ccc(-c4ccccc4)cc3)C2)cc(C(C)(C)C)c1O (stereo not drawn) [Compound 6, (E)-1-(2-([1.1′-Biphenyl]-4-yl)thiomorpholino)-3-(3,5-ditertbutyl-4-hydroxyphenyl)prop-2-en-1-one] | 0% | 3.54 |  |  | 49% | 36% | 65% | ~45% | < 3.30 | 33% | 252 µM | 43% |  |  | 23 **^,2%
8 | CC(C)Cc1ccc(C(C)C(=O)N2CCSC(c3ccc(-c4ccccc4)cc3)C2)cc1 (stereo not drawn) [Compound 7, 1-(2-([1,1′-Biphenyl]-4-yl)thiomorpholino)-2-(4-isobutylphenyl)propan-1-one] | 3% | < 3.40 |  |  |  | 27% | 70% | 27% | 3.52 | 27% | 22 µM |  | 0% |  | 
9 | O=C(/C=C/c1ccccc1)N1CCSC(c2ccc(-c3ccccc3)cc2)C1 (stereo not drawn) [Compound 8, (E)-1-(2-([1,1′-Biphenyl]-4-yl)thiomorpholino)-3-phenylprop-2-en-1-one] | 5% | < 3.40 |  | 9% | 57% | 45% | 53% | 19% | < 3.00 | 46% | > 200 µM | 91% | 104% |  | 
10 | Cc1c(C)c2c(c(C)c1O)CCC(C)(C(=O)N1CCSC(c3ccc(-c4ccccc4)cc3)C1)O2 (stereo not drawn) [Compound 10] | 0% | 4.11 |  | 32% | 23% | 13% | 52% | ~45% | 5.40 | 43% | 140 µM | 77% |  |  | 
11 | CC(C)(C)c1cc(/C=C/C(=O)N2CC(c3ccc(-c4ccccc4)cc3)Sc3ccccc32)cc(C(C)(C)C)c1O (stereo not drawn) [Compound 16, (E)-1-(2-([1,1′-Biphenyl]-4-yl)-2,3-dihydro-4H-benzo[b][1,4]thiazin-4-yl)-3-(3,5-ditertbutyl-4-hydroxyphenyl)prop-2-en-1-one] | 9% | 3.85 |  | 131% | 66% | 45% | 67% | 24% | < 3.00 | 45% | 58 µM |  |  |  | 
12 | Cc1c(C)c2c(c(C)c1O)CCC(C)(C(=O)O)O2 (stereo not drawn) [Trolox, 6-hydroxy-2,5,7,8-tetramethylchroman-2-carboxylic acid, reference compound] | 29% | 4.48 | 43% |  |  |  |  |  |  |  |  |  |  |  | 
13 | CC(C)(C)c1cc(/C=C/C(=O)O)cc(C(C)(C)C)c1O [acrylic derivative, (E)-3-(3,5-ditertbutyl-4-hydroxyphenyl)acrylic acid, reference compound] |  | 4.11 |  |  |  |  |  |  |  |  |  |  |  |  | 
14 | O=C1O[C@H]([C@@H](O)CO)C(O)=C1O [ascorbic acid, reference compound] |  | 4.38 |  |  |  |  |  |  |  |  |  |  |  |  | 
15 | O=C(O)/C=C/c1ccccc1 [cinnamic acid, reference compound] |  |  |  |  |  |  |  |  |  |  | > 300 µM |  |  |  | 
16 | O=C(O)c1cc(O)c(O)c(O)c1 [gallic acid, reference compound] | 98% | 4.85 | 73% |  |  |  |  |  |  |  |  |  |  |  | 
17 | CC(C)Cc1ccc(C(C)C(=O)O)cc1 (stereo not drawn) [ibuprofen, reference compound] |  |  |  |  |  |  |  |  |  |  | > 300 µM |  |  |  | 
18 | COc1ccc2cc([C@H](C)C(=O)O)ccc2c1 [naproxen, reference compound] |  |  |  |  |  |  |  |  |  |  | 25 µM |  |  |  | 
